Measured values taken from article PMC5107132 (European journal of pharmacology, 2016).
Marks after values point to notes of the source that are not given here.

System: Wistar rats
Experiment: Rotarod test
Assay type: in vivo, rat
Conditions: 15 mg/kg MP-III-022 in combination with 15 mg/kg flumazenil (FLU), i.p.

C#Cc1ccc2c(c1)C(c1ccccc1F)=N[C@H](C)c1c(C(=O)NC)ncn1-2 [MP-III-022, (R)-8-Ethynyl-6-(2-fluorophenyl)-N,4-dimethyl-4H-benzo[f]imidazo[1,5-a][1,4]diazepine-3-carboxamide]
Rotarod, time remaining on the rod revolving at 15 rpm: 175.17 ± 4.83^a,d s
